Like-named read-outs stand apart in the source and are kept apart here.
Assays:
[1] = system: AsPC-1 (K-Ras G12D); assay: CellTiter-Glo cell viability assay, AsPC-1; assay type: cell-based; conditions: Homo sapiens, ASPC1, 120 h
In short: (§1)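 Test compounds were dispensed directly onto seeded cells, and on day 5 plates were brought to room temperature for about 30 minutes before CellTiter-Glo luminescence was read. Signals were expressed as percent of the mean DMSO control and fitted with a four-parameter logistic model.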

[2] = biological target: KRAS G12S (Homo sapiens, UniProt P01116+P62937, G12S); assay: Ras-Raf disruption/FRET/MOA assay, KRAS G12S; assay type: biochemical
In short: (§2)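 His6-K-Ras-GMPPNP (12.5 nM) was incubated with GST-BRAF RBD (50 nM), tagless cyclophilin A (25 µM) and compound (10-point 3-fold series from 30 µM) in HEPES pH 7.3 buffer for 3 h at 25 °C. Anti-His Eu/anti-GST APC were then added for 1.5 h; disruption was read as a drop in TR-FRET ratio versus DMSO.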

[3] = biological target: KRAS G12D (Homo sapiens, UniProt P01116+P62937, G12D); assay: Ras-Raf disruption/FRET/MOA assay, KRAS G12D; assay type: biochemical
In short: as §2

[4] = biological target: T1, NRAS G12C (Homo sapiens, UniProt P01111+P62937, G12C); assay: Ras-Raf disruption/FRET/MOA assay, NRAS G12C; assay type: biochemical
T1 construct: His6
In short: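 Disruption of Ras:RAF binding was read as a drop in TR-FRET ratio versus DMSO controls. The buffer was 25 mM HEPES pH 7.3, 0.002% Tween20, 0.1% BSA, 100 mM NaCl and 5 mM MgCl2. Compounds were tested as a 10-point 3-fold dilution series from 30 μM. Detection used 10 nM anti-His Eu-W1024 and 50 nM anti-GST allophycocyanin.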

[5] = biological target: KRAS WT (Homo sapiens, UniProt P01116+P62937); assay: Ras-Raf disruption/FRET/MOA assay, KRAS WT; assay type: biochemical
In short: as §2

[6] = system: NCI-H358 (K-Ras G12C); assay: CellTiter-Glo cell viability assay, H358; assay type: cell-based; conditions: Homo sapiens, NCI-H358, 120 h
In short: as §1

[7] = biological target: KRAS G13D (Homo sapiens, UniProt P01116+P62937, G13D); assay: Ras-Raf disruption/FRET/MOA assay, KRAS G13D; assay type: biochemical
In short: as §2

[8] = system: AsPC-1 (K-Ras G12D); assay: Potency assay: pERK in AsPC-1 cells; assay type: cell-based; conditions: Homo sapiens
[9] = biological target: KRAS G13C (Homo sapiens, UniProt P01116+P62937, G13C); assay: Ras-Raf disruption/FRET/MOA assay, KRAS G13C; assay type: biochemical
In short: as §2

[10] = biological target: KRAS G12C (Homo sapiens, UniProt P01116+P62937, G12C); assay: Ras-Raf disruption/FRET/MOA assay, KRAS G12C; assay type: biochemical
In short: as §2

[11] = biological target: KRAS G12V (Homo sapiens, UniProt P01116+P62937, G12V); assay: Ras-Raf disruption/FRET/MOA assay, KRAS G12V; assay type: biochemical
In short: as §2

[12] = biological target: T2, NRAS WT (Homo sapiens, UniProt P01111+P62937); assay: Ras-Raf disruption/FRET/MOA assay, NRAS WT; assay type: biochemical
T2 construct: His6
Description: (§3) Disruption of B-Raf Ras-Binding Domain (BRAF^RBD) Interaction with K-Ras by Compounds of the Invention (Also Called a FRET Assay or an MOA Assay)
(§4) Note—The following protocol describes a procedure for monitoring disruption of K-Ras G12C (GMP-PNP) binding to BRAF^RBD by a compound of the invention. This protocol may also be executed substituting other Ras proteins or nucleotides, such as K-Ras G12D and K-Ras G13D.
(§5) The purpose of this biochemical assay was to measure the ability of test compounds to facilitate ternary complex formation between a nucleotide-loaded K-Ras isoform and Cyclophilin A; the resulting ternary complex disrupts binding to a BRAF^RBD construct, inhibiting K-Ras signaling through a RAF effector.
(§6) In assay buffer containing 25 mM HEPES pH 7.3, 0.002% Tween20, 0.1% BSA, 100 mM NaCl and 5 mM MgCl2, tagless Cyclophilin A, His6-K-Ras-GMPPNP, and GST-BRAF^RBD were combined in a 384-well assay plate at final concentrations of 25 μM, 12.5 nM, and 50 nM, respectively. Compound was present in plate wells as a 10-point 3-fold dilution series starting at a final concentration of 30 μM. After incubation at 25° C. for 3 hours, a mixture of anti-His Eu-W1024 and anti-GST allophycocyanin was then added to assay sample wells at final concentrations of 10 nM and 50 nM, respectively, and the reaction incubated for an additional 1.5 hours. […] Compounds that facilitate disruption of a K-Ras:RAF complex were identified as those eliciting a decrease in the TR-FRET ratio relative to DMSO control wells.

[13] = biological target: KRAS Q61H (Homo sapiens, UniProt P01116+P62937, Q61H); assay: Ras-Raf disruption/FRET/MOA assay, KRAS Q61H; assay type: biochemical; conditions: KRAS Q61H; read-out: KRAS Q61H FRET data IC50
Description: as §3, §4, §5, §6

[14] = read-out: AsPC-1 Cell Viability IC50
[15] = disruption of BRAF RBD binding, with Cyclophilin A, read-out: KRAS G12S FRET IC50
[16] = disruption of BRAF RBD binding, with Cyclophilin A, read-out: KRAS G12D FRET IC50
[17] = NRAS G12C, read-out: NRAS G12C FRET data IC50
[18] = disruption of BRAF RBD binding, with Cyclophilin A, read-out: KRAS WT FRET IC50
[19] = read-out: H358 Cell Viability IC50
[20] = disruption of BRAF RBD binding, with Cyclophilin A, read-out: KRAS G13D FRET IC50
[21] = ASPC1, read-out: pERK EC50 (AsPC-1 KRAS G12D)
[22] = disruption of BRAF RBD binding, with Cyclophilin A, read-out: KRAS G13C FRET IC50
[23] = disruption of BRAF RBD binding, with Cyclophilin A, read-out: KRAS G12C FRET IC50
[24] = disruption of BRAF RBD binding, with Cyclophilin A, read-out: KRAS G12V FRET IC50
[25] = AsPC-1, K-Ras G12D, 5-day treatment, read-out: AsPC-1 Cell Viability IC50
[26] = NCI-H358, K-Ras G12C, 5-day treatment, read-out: H358 Cell Viability IC50
[27] = ASPC1, AsPC-1 cells, K-Ras G12D, read-out: pERK EC50 (AsPC-1 KRAS G12D)
[28] = read-out: AsPC-1 Cell Viability IC50, AsPC-1, K-Ras G12D, 5-day treatment
[29] = NRAS G12C FRET data IC50, NRAS G12C
[30] = read-out: H358 Cell Viability IC50, NCI-H358, K-Ras G12C, 5-day treatment

Sequence of KRAS G12S (P01116 1-169 isoform P01116-2 G12S limits assumed): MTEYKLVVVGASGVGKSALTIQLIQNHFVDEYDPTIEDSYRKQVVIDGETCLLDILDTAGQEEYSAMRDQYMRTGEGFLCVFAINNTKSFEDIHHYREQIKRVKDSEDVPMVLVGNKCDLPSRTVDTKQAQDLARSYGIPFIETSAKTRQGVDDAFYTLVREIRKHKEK
Sequence of KRAS G12S (P62937 whole entry): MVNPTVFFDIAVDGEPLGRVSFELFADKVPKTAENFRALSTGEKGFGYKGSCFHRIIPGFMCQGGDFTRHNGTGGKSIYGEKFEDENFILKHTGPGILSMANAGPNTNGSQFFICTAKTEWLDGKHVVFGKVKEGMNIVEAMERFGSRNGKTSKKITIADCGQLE
Sequence of KRAS G13D (P01116 1-169 isoform P01116-2 G13D limits assumed): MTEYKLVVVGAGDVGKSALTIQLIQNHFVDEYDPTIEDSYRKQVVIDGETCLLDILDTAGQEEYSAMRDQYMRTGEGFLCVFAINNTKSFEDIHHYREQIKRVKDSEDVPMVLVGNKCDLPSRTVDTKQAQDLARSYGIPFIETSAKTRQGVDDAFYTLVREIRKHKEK
Sequence of KRAS G13D (P62937 whole entry): as the sequence (P62937 whole entry) above
Sequence of KRAS WT (P01116 1-169 isoform P01116-2 limits assumed): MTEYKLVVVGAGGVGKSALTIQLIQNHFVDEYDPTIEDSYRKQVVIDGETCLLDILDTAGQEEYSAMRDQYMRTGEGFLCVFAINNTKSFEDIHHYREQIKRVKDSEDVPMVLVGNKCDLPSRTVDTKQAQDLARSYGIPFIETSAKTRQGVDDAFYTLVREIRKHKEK
Sequence of KRAS WT (P62937 whole entry): as the sequence (P62937 whole entry) above
Sequence of KRAS G12V (P01116 1-169 isoform P01116-2 G12V limits assumed): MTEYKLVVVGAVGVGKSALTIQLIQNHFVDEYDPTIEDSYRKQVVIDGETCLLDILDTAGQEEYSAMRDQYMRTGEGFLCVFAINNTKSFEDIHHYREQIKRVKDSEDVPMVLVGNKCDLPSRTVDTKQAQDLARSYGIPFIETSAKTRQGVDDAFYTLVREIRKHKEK
Sequence of KRAS G12V (P62937 whole entry): as the sequence (P62937 whole entry) above
T1 sequence (P01111 whole entry G12C): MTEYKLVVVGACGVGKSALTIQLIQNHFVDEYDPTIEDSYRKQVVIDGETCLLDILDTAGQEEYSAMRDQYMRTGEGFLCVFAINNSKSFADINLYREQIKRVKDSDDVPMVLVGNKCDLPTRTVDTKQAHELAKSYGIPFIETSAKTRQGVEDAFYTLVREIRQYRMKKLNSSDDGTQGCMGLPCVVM
T1 sequence (P62937 whole entry): as the sequence (P62937 whole entry) above
Sequence of KRAS G12D (P01116 1-169 isoform P01116-2 G12D limits assumed): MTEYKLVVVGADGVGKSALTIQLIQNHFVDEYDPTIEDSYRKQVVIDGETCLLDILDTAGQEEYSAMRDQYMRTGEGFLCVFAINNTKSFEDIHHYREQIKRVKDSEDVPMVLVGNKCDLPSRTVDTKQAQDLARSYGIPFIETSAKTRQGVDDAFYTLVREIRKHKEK
Sequence of KRAS G12D (P62937 whole entry): as the sequence (P62937 whole entry) above
Sequence of KRAS G13C (P01116 1-169 isoform P01116-2 G13C limits assumed): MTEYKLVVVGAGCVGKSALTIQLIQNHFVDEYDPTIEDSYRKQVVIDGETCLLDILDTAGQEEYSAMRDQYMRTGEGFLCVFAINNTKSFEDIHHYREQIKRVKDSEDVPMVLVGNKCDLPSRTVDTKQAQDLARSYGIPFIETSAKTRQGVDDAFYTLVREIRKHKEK
Sequence of KRAS G13C (P62937 whole entry): as the sequence (P62937 whole entry) above
Sequence of KRAS G12C (P01116 1-169 isoform P01116-2 G12C limits assumed): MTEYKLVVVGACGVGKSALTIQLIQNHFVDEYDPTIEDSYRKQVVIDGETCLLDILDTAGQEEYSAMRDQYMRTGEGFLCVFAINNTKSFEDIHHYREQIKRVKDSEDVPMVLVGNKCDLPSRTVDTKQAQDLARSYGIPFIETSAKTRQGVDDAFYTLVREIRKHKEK
Sequence of KRAS G12C (P62937 whole entry): as the sequence (P62937 whole entry) above
T2 sequence (P01111 whole entry): as the sequence (P01111 whole entry G12C) above, with C12G counted along it
T2 sequence (P62937 whole entry): as the sequence (P62937 whole entry) above
Sequence of KRAS Q61H (P01116 1-169 isoform P01116-2 Q61H limits assumed): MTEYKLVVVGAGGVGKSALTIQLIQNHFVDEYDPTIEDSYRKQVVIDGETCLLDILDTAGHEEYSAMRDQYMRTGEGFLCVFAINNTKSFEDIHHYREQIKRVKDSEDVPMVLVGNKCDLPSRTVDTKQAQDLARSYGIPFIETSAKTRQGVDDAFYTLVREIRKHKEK
Sequence of KRAS Q61H (P62937 whole entry): as the sequence (P62937 whole entry) above

Compound	IC50 [1, 14]	IC50 [2, 15]	IC50 [3, 16]	IC50 [4, 17]	IC50 [5, 18]	IC50 [6, 19]	IC50 [7, 20]	EC50 [8, 21]	IC50 [9, 22]	IC50 [10, 23]	IC50 [11, 24]	IC50 [1, 25]	IC50 [6, 26]	EC50 [8, 27]	IC50 [1, 28]	IC50 [6, 30]	also measured
CCn1c(-c2cnccc2COC)c2c3cc(ccc31)-c1cc(O)cc(c1)C[C@H](NC(=O)[C@H](C(C)C)N(C)C(=O)CN(C)C(=O)C1CN1S(C)(=O)=O)C(=O)N1CCC[C@H](N1)C(=O)OCC(C)(C)C2 (stereo partly drawn) [Compound 13]	1000 to 10000 nM	10 to 100 nM	100 to 1000 nM	10 to 100 nM	10 to 100 nM	10 to 100 nM	100 to 1000 nM	< 5000 nM	10 to 100 nM	10 to 100 nM	10 to 100 nM						
CCn1c(-c2cnccc2COC)c2c3cc(ccc31)-c1cc(O)cc(c1)C[C@H](NC(=O)[C@H](C(C)C)N(C)C(=O)CN(C)C(=O)C1CN1C(C)=O)C(=O)N1CCC[C@H](N1)C(=O)OCC(C)(C)C2 (stereo partly drawn) [Compound 14]	1000 to 10000 nM	100 to 1000 nM	100 to 1000 nM	10 to 100 nM	100 to 1000 nM	100 to 1000 nM	100 to 1000 nM	< 5000 nM	10 to 100 nM	10 to 100 nM	100 to 1000 nM						
CCn1c(-c2cnccc2COC)c2c3cc(ccc31)-c1cc(O)cc(c1)C[C@H](NC(=O)[C@H](C(C)C)N(C)C(=O)CN(C)C(=O)[C@@H]1[C@H](C(=O)OC)N1[S@@+]([O-])C(C)(C)C)C(=O)N1CCC[C@H](N1)C(=O)OCC(C)(C)C2 (stereo partly drawn) [Compound 50]	> 10000 nM	10 to 100 nM	100 to 1000 nM	10 to 100 nM	100 to 1000 nM	100 to 1000 nM	100 to 1000 nM	< 5000 nM	10 to 100 nM	10 to 100 nM	10 to 100 nM						
CCn1c(-c2cnccc2COC)c2c3cc(ccc31)-c1cc(O)cc(c1)C[C@H](NC(=O)[C@H](C(C)C)N(C)C(=O)CN(C)C(=O)[C@H]1[C@@H](C3CC3)N1[S@+]([O-])C(C)(C)C)C(=O)N1CCC[C@H](N1)C(=O)OCC(C)(C)C2 (stereo partly drawn) [Compound 52]	1000 to 10000 nM	10 to 100 nM	100 to 1000 nM	10 to 100 nM	10 to 100 nM	100 to 1000 nM	100 to 1000 nM	< 5000 nM	100 to 1000 nM	10 to 100 nM	100 to 1000 nM						
CCn1c(-c2cccnc2[C@H](C)OC)c2c3cc(ccc31)-c1cc(O)cc(c1)C[C@H](NC(=O)[C@H](C1CCCC1)N(C)C(=O)[C@H]1CCN(C(=O)[C@H]3CN3)C1)C(=O)N1CCC[C@H](N1)C(=O)OCC(C)(C)C2 [Compound 58]		10 to 100 nM	100 to 1000 nM	< 10 nM	10 to 100 nM		10 to 100 nM		10 to 100 nM	< 10 nM	10 to 100 nM	100 to 1000 nM	< 10 nM	< 5000 nM			
CCn1c(-c2cccnc2[C@H](C)OC)c2c3cc(ccc31)-c1cc(O)cc(c1)C[C@H](NC(=O)[C@H](C(C)C)N(C)C(=O)CN(C)C(=O)[C@@H]1CN1)C(=O)N1CCC[C@H](N1)C(=O)OCC(C)(C)C2 [Compound 150]								< 5000 nM							100 to 1000 nM	< 10 nM	IC50 [2]: 10 to 100 nM; IC50 [3]: 10 to 100 nM; IC50 [4, 29]: < 10 nM; IC50 [5]: 10 to 100 nM; IC50 [7]: 10 to 100 nM; IC50 [9]: 10 to 100 nM; IC50 [10]: < 10 nM; IC50 [11]: 10 to 100 nM
CCn1c(-c2cccnc2[C@H](C)OC)c2c3cc(ccc31)-c1cc(O)cc(c1)C[C@H](NC(=O)[C@H](C(C)C)N1CC[C@@]3(CCCN(C(=O)[C@@H]4CN4)C3)C1=O)C(=O)N1CCC[C@H](N1)C(=O)OCC(C)(C)C2 [Compound 191]		10 to 100 nM	100 to 1000 nM	10 to 100 nM	10 to 100 nM		100 to 1000 nM		10 to 100 nM	10 to 100 nM	100 to 1000 nM	1000 to 10000 nM	10 to 100 nM	< 5000 nM			
CCn1c(-c2cccnc2[C@H](C)OC)c2c3cc(ccc31)-c1cc(O)cc(c1)C[C@H](NC(=O)[C@H](C(C)C)N(C)C(=O)CN(C)C(=O)[C@@H]1CN1CCCOC(C)=O)C(=O)N1CCC[C@H](N1)C(=O)OCC(C)(C)C2 (stereo partly drawn) [Compound 267]								< 5000 nM							100 to 1000 nM	< 10 nM	IC50 [12]: 10 to 100 nM
CCn1c(-c2cccnc2[C@H](C)OC)c2c3cc(ccc31)-c1cccc(c1)C[C@H](NC(=O)[C@H](C1CCCC1)N1CC[C@]3(CCN(C(=O)[C@@H]4N[C@@H]4C4CC4)C3)C1=O)C(=O)N1CCC[C@H](N1)C(=O)OCC(C)(C)C2 [Compound 313]												10 to 100 nM	100 to 1000 nM	< 5000 nM			IC50 [13]: 100 to 1000 nM
CCn1c(-c2cnccc2COC)c2c3cc(ccc31)-c1cc(O)cc(c1)C[C@H](NC(=O)[C@H](C(C)C)N(C)C(=O)CN(C)C(=O)[C@H]1CN1)C(=O)N1CCC[C@H](N1)C(=O)OCC(C)(C)C2 [Example 7, (2R)—N-(2-(((2S)-1-(((6^3S,4S)-1^1-ethyl-2^5-hydroxy-1^2-(4-(methoxymethyl)pyridin-3-yl)-10,10-dimethyl-5,7-dioxo-6^1,6^2,6^3,6^4,6^5,6^6-hexahydro-1^1H-8-oxa-1(5,3)-indola-6(1,3)-pyridazina-2(1,3)-benzenacycloundecaphane-4-yl)amino)-3-methyl-1-oxobutan-2-yl)(methyl)amino)-2-oxoethyl)-N-methylaziridine-2-carboxamide]								< 5000 nM							100 to 1000 nM	10 to 100 nM	IC50 [2]: 10 to 100 nM; IC50 [3]: 100 to 1000 nM; IC50 [4, 29]: < 10 nM; IC50 [5]: 100 to 1000 nM; IC50 [7]: 100 to 1000 nM; IC50 [9]: 10 to 100 nM; IC50 [10]: < 10 nM; IC50 [11]: 100 to 1000 nM

From patent US11739074B2, “Ras inhibitors” (Revolution Medicines, Inc., priority 2019, dated 2023)
